Assay results published in patent US9650616B2, “Methods for increasing grain yield” (University of Florida Research Foundation, Inc., priority 2014, dated 2017).
Residue numbers refer to the chain shown, from its start.

Tests used:
[1] = target: T1, maize endosperm AGPase, large subunit variant RGR (Q96R, D161G, A443R; numbering of SEQ ID NO: 20) (Zea mays, UniProt P55241+Q84PF5, A443R/D161G/Q96R); assay: Apparent kinetic constants with 3-PGA, 37° C., RGR; type: biochemical; conditions: read-out: ATP Km
T1 sequence (P55241 46-516 A443R/D161G/Q96R): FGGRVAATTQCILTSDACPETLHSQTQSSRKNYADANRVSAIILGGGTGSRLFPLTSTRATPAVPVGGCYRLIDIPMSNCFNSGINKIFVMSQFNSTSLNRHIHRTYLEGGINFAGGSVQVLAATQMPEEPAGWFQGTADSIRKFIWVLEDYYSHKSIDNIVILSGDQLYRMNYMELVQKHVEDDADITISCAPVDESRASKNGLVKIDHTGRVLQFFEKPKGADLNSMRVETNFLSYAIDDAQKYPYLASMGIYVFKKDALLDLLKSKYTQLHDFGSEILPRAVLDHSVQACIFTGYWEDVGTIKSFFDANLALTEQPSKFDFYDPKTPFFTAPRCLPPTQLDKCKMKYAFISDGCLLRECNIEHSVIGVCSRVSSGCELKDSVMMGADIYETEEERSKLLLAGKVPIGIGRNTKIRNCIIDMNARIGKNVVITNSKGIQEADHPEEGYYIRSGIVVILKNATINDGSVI
T1 sequence (Q84PF5 1-474): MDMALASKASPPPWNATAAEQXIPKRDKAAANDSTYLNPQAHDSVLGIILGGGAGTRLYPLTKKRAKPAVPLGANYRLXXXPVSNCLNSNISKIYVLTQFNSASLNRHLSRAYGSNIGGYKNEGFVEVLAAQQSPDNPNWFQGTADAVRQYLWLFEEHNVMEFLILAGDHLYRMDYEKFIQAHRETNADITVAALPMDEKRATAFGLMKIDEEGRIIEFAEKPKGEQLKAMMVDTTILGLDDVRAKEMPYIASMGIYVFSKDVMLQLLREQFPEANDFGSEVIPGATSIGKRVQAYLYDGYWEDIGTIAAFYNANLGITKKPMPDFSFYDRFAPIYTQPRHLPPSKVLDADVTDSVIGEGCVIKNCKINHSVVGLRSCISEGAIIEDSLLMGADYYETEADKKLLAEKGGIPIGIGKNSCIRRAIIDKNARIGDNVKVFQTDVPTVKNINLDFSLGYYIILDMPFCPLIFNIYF
Text: (§1) The small and large subunit plasmids of maize endosperm AGPase (pMONcBt2 and pMONcSh2, respectively) (Giroux et al., 1996) were expressed in E. coli AC70R1-504 cells (Iglesias et al., 1993) as previously described (Boehlein et al., 2008).
(§2) An endpoint assay was used to determine the rate of the AGPase reaction by coupling the formation of PPi to a decrease in NADH concentration (Boehlein et al., 2008). […] The Michaelis constants (Km) were obtained by varying one substrate in the presence of saturating concentrations of the second substrate. The activation constants were obtained by varying the activator at fixed levels of both substrates. All reactions were performed at 37° C. and mixes were prewarmed before starting the reaction with enzyme. […] The absorbance at 340 nm was monitored after 30 min and the amount of PPi produced was determined from a standard curve using PPi in complete reaction mixtures lacking AGPase. Blank samples contained complete reaction mixtures without enzyme and the change in absorbance between the blank and the reaction was used to calculate the amount of PPi produced. […]
(§3) The apparent Michaelis constant and maximum velocity of each reaction was calculated from a V vs. S plots using nonlinear regression analysis and the following equation, v=VmaxS/(Km+S), where v is the measured velocity, Vmax is the maximum velocity, S is the substrate concentration. […]

[2] = target: T2, maize endosperm AGPase, large subunit variant GGRV (Q96G, D161G, A443R, I285V; numbering of SEQ ID NO: 20) (Zea mays, UniProt P55241+Q84PF5, A443R/D161G/I285V/Q96G); assay: Apparent kinetic constants with 3-PGA, 37° C., GGRV; type: biochemical; conditions: read-out: ATP Km
T2 sequence (P55241 46-516 A443R/D161G/I285V/Q96G): T1 sequence (P55241 46-516 A443R/D161G/Q96R) with R51G, I240V
T2 sequence (Q84PF5 1-474): T1 sequence (Q84PF5 1-474)
Text: as §1, §2, §3

## Nc1ncnc2c1ncn2[C@@H]1O[C@H](COP(=O)(O)OP(=O)(O)OP(=O)(O)O)[C@@H](O)[C@H]1O [ATP]
[1]
  Km: 62 µM
[2]
  Km: 46 µM
